# Target: T1, Human complement C1s enzyme (Homo sapiens, UniProt P09871)
# T1 sequence (P09871 438-688 limits assumed): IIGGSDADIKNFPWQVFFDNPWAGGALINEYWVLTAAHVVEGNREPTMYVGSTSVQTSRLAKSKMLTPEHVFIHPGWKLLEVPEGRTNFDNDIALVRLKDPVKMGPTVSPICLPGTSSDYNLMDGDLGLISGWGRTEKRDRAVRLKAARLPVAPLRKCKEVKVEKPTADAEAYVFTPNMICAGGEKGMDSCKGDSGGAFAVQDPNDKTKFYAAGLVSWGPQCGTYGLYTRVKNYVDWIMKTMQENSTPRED
# T1 sequence (P09871 16-437 partner limits assumed): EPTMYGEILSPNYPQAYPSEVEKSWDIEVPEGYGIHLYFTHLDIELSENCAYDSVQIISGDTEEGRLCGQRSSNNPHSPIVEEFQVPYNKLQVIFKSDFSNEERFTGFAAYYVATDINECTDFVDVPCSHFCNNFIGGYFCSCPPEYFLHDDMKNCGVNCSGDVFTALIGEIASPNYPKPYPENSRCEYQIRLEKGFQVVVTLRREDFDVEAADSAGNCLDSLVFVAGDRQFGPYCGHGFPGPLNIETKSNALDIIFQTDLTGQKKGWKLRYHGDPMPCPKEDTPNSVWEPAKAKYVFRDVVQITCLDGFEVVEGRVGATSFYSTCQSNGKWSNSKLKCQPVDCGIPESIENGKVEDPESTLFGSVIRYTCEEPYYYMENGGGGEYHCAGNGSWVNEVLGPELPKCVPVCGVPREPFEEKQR
# Experiment: Human C1s enzyme assay
# Format: biochemical
# Conditions: human complement C1s enzyme 1.16 nM, substrate Z-L-Lys-SBzl 100 μM, 5 min preincubation; read-out: IC50 (Stars), C1s Inhibiting Activity
# Outline: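 IC50 from nonlinear regression of reaction rates versus compound concentration, with rates taken from A405 recorded at 30 s intervals over 30 min after adding 100 μM Z-L-Lys-SBzl plus 100 μM DTNB. Enzyme was human C1s purified from serum, 1.16 nM, given 5 min compound preincubation at room temperature, pH 7.5 Tris/1 M NaCl.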
row,Structure (SMILES),IC50 [nM]
1,"O=C(NCc1cc2cnccc2[nH]1)[C@@H]1C[C@@H](OC(F)F)CN1C(=O)CN1Cc2ncc(-c3ccc(F)cc3F)cc2C1=O [Compound 135, (2S,4R)-N-((1H-pyrrolo[3,2-c]pyridin-2-yl)methyl)-4-(difluoromethoxy)-1-(2-(3-(2,4-difluorophenyl)-5-oxo-5,7-dihydro-6H-pyrrolo[3,4-b]pyridin-6-yl)acetyl)pyrrolidine-2-carboxamide]",> 1000
2,"C[C@@]12C[C@@H]1N(C(=O)CNC(=O)c1ccc(Oc3ccccc3)cn1)[C@H](C(=O)NCc1cc3cnccc3[nH]1)C2 [Compound 136, (1S,3S,5S)-N-((1H-pyrrolo[3,2-c]pyridin-2-yl)methyl)-5-methyl-2-((5-phenoxypicolinoyl)glycyl)-2-azabicyclo[3.1.0]hexane-3-carboxamide]",100 to 1000
3,"O=C(NCC(=O)N1C[C@H](OC(F)F)C[C@H]1C(=O)NCc1cc2cnccc2[nH]1)c1ccc(Oc2ccccc2)cn1 [Compound 137, N-(2-((2S,4R)-2-(((1H-pyrrolo[3,2-c]pyridin-2-yl)methyl)carbamoyl)-4-(difluoromethoxy)pyrrolidin-1-yl)-2-oxoethyl)-5-phenoxypicolinamide]",< 100
4,"O=C(NCc1cc2cnccc2[nH]1)[C@@H]1C[C@@H](OC(F)F)CN1C(=O)CN1Cc2ncc(-c3ccc(F)cc3)cc2C1=O [Compound 138, (2S,4R)-N-((1H-pyrrolo[3,2-c]pyridin-2-yl)methyl)-4-(difluoromethoxy)-1-(2-(3-(4-fluorophenyl)-5-oxo-5,7-dihydro-6H-pyrrolo[3,4-b]pyridin-6-yl)acetyl)pyrrolidine-2-carboxamide]",> 1000
5,"C[C@@]12C[C@@H]1N(C(=O)CNC(=O)c1ccc(Oc3ccc(C(F)(F)F)cc3)cc1)[C@H](C(=O)NCc1cc3cnccc3[nH]1)C2 [Compound 139, (1S,3S,5S)-N-((1H-pyrrolo[3,2-c]pyridin-2-yl)methyl)-5-methyl-2-((4-(4-(trifluoromethyl)phenoxy)benzoyl)glycyl)-2-azabicyclo[3.1.0]hexane-3-carboxamide]",100 to 1000
6,"O=C(NCC(=O)N1C[C@H](OC(F)F)C[C@H]1C(=O)NCc1cc2cnccc2s1)c1ccc2c(c1)Oc1ccccc1S2 [Compound 141, (2S,4R)-4-(difluoromethoxy)-1-((phenoxathiine-3-carbonyl)glycyl)-N-(thieno[3,2-c]pyridin-2-ylmethyl)pyrrolidine-2-carboxamide]",< 100
7,"Cc1cc(C(=O)NCC(=O)N2C[C@H](OC(F)F)C[C@H]2C(=O)N[C@H](C)c2cc3cnccc3[nH]2)ccc1Oc1ccc(F)cc1 [Compound 143, (2S,4R)-N-((R)-1-(1H-pyrrolo[3,2-c]pyridin-2-yl)ethyl)-4-(difluoromethoxy)-1-((4-(4-fluorophenoxy)-3-methylbenzoyl)glycyl)pyrrolidine-2-carboxamide]",< 100
8,"O=C(NCC(=O)N1CC2(C[C@H]1C(=O)NCc1cc3cnccc3[nH]1)OCCO2)c1cccc(Oc2ccccc2)c1 [Compound 144, (S)-N-((1H-pyrrolo[3,2-c]pyridin-2-yl)methyl)-7-((3-phenoxybenzoyl)glycyl)-1,4-dioxa-7-azaspiro[4.4]nonane-8-carboxamide]",< 100
9,"C[C@@H](NC(=O)[C@@H]1C[C@@H](C2OCCCO2)CN1C(=O)CNC(=O)c1ccc2c(c1)Oc1ccccc1S2)c1cc2cnccc2[nH]1 [Compound 145, (2S,4R)-N-((R)-1-(1H-pyrrolo[3,2-c]pyridin-2-yl)ethyl)-4-(1,3-dioxan-2-yl)-1-((phenoxathiine-3-carbonyl)glycyl)pyrrolidine-2-carboxamide]",< 100
10,"C[C@@H](NC(=O)[C@@H]1C[C@H](C2OCCCO2)CN1C(=O)CNC(=O)c1ccc2c(c1)Oc1ccccc1S2)c1cc2cnccc2[nH]1 [Compound 146, (2S,4S)-N-((R)-1-(1H-pyrrolo[3,2-c]pyridin-2-yl)ethyl)-4-(1,3-dioxan-2-yl)-1-((phenoxathiine-3-carbonyl)glycyl)pyrrolidine-2-carboxamide]",< 100
11,"C[C@@H](NC(=O)[C@@H]1C[C@]2(C)C[C@@H]2N1C(=O)CNC(=O)c1ccc(-c2ccc(F)cc2F)cc1)c1cc2cnccc2[nH]1 [Compound 147, (1S,3S,5S)-N-((R)-1-(1H-pyrrolo[3,2-c]pyridin-2-yl)ethyl)-2-((2′,4′-difluoro-[1,1′-biphenyl]-4-carbonyl)glycyl)-5-methyl-2-azabicyclo[3.1.0]hexane-3-carboxamide]",100 to 1000
12,"C[C@@H](NC(=O)[C@@H]1C[C@](F)(CO)CN1C(=O)CNC(=O)c1ccc2c(c1)Oc1ccccc1S2)c1cc2cnccc2[nH]1 [Compound 148, (2S,4R)-N-((R)-1-(1H-pyrrolo[3,2-c]pyridin-2-yl)ethyl)-4-fluoro-4-(hydroxymethyl)-1-((phenoxathiine-3-carbonyl)glycyl)pyrrolidine-2-carboxamide]",< 100
13,"COC[C@@H]1C[C@@H](C(=O)N[C@H](C)c2cc3cnccc3[nH]2)N(C(=O)CNC(=O)c2ccc3c(c2)Oc2ccccc2S3)C1 [Compound 149, (2S,4R)-N-((R)-1-(1H-pyrrolo[3,2-c]pyridin-2-yl)ethyl)-4-(methoxymethyl)-1-((phenoxathiine-3-carbonyl)glycyl)pyrrolidine-2-carboxamide]",< 100
14,"C[C@@H](NC(=O)[C@@H]1C[C@@H](c2nccs2)CN1C(=O)CNC(=O)c1ccc2c(c1)Oc1ccccc1S2)c1cc2cnccc2[nH]1 [Compound 150, (2S,4R)-N-((R)-1-(1H-pyrrolo[3,2-c]pyridin-2-yl)ethyl)-1-((phenoxathiine-3-carbonyl)glycyl)-4-(thiazol-2-yl)pyrrolidine-2-carboxamide]",< 100
15,"O=C(NCC(=O)N1CC[C@@H](O)[C@H]1C(=O)NCc1cc2cnccc2[nH]1)c1ccc(Oc2ccccc2)cc1 [Compound 151, (2S,3R)-N-((1H-pyrrolo[3,2-c]pyridin-2-yl)methyl)-3-hydroxy-1-((4-phenoxybenzoyl)glycyl)pyrrolidine-2-carboxamide]",100 to 1000
16,"C[C@@]12C[C@@H]1N(C(=O)CNC(=O)c1cccc(Oc3ccccc3)c1)[C@H](C(=O)NCc1cc3cnccc3[nH]1)C2 [Compound 152, (1S,3S,5S)-N-((1H-pyrrolo[3,2-c]pyridin-2-yl)methyl)-5-methyl-2-((3-phenoxybenzoyl)glycyl)-2-azabicyclo[3.1.0]hexane-3-carboxamide]",< 100
17,"C[C@@]12C[C@@H]1N(C(=O)CNC(=O)c1cccc(Oc3ccc(F)cc3)c1)[C@H](C(=O)NCc1cc3cnccc3[nH]1)C2 [Compound 153, (1S,3S,5S)-N-((1H-pyrrolo[3,2-c]pyridin-2-yl)methyl)-2-((3-(4-fluorophenoxy)benzoyl)glycyl)-5-methyl-2-azabicyclo[3.1.0]hexane-3-carboxamide]",< 100
18,"O=C(NCC(=O)N1C[C@H](OC(F)F)C[C@H]1C(=O)NCc1cc2cnccc2[nH]1)c1cccc(Oc2ccc(F)cc2)c1 [Compound 154, (2S,4R)-N-((1H-pyrrolo[3,2-c]pyridin-2-yl)methyl)-4-(difluoromethoxy)-1-((3-(4-fluorophenoxy)benzoyl)glycyl)pyrrolidine-2-carboxamide]",< 100
19,"C[C@@]12C[C@@H](C(=O)NCc3cc4cnccc4[nH]3)N(C(=O)CNC(=O)c3cccc(Oc4ccc(F)cc4)c3)[C@@H]1C2 [Compound 155, (1R,3S,5R)-N-((1H-pyrrolo[3,2-c]pyridin-2-yl)methyl)-2-((3-(4-fluorophenoxy)benzoyl)glycyl)-5-methyl-2-azabicyclo[3.1.0]hexane-3-carboxamide]",100 to 1000

# Source: patent US20260062443A1 (ALEXION PHARMACEUTICALS, INC., priority 2022, published 2026)
